Key:
[1] = test system: bromodomain; test: Bromodomain cell assays of Example 40 (at least one of them); assay type: cell-based; settings: in at least one of the bromodomain cell assays described in Example 40
From the text: (§1) Published bromodomain inhibitors JQ1 and iBET 151 have shown activity in variety of cancer cells such leukemia and lymphoma, multiple myeloma cells, NUT midline carcinoma and glioblastoma cells (Dawson M A et al. 2011; Delmore J E 2011; Chen Z et al. 2013; Filippakopoulos P et al. 2010; Mertz J A et al. 2011; Ott C J et al. 2012). In this study, we test compounds in different cancer cell lines. MV-4-11 and MOLM-13 are AML cell lines harboring a MLL-AF4 and MLL-AF9 translocation, respectively. MM.1S is a multiple myeloma cell line. SK-N-AS, IMR-32 and SK-N-BE(2) are neuroblastoma cell lines. IMR-32 and SK-N-BE(2) cell lines harbor MYCN amplifications. MV-4-11, MM.1S, IMR-32, SK-N-AS and SK-N-BE(2) were obtained from ATCC (IL, USA) and MOLM-13 were purchased from DSMZ (Braunschweig, German). Cells are cultured as recommended by their sources. For growth inhibition studies 3000 cells are seeded in wells of a 96-well plate in 75 μL of culture media. After several hours, growth media containing compounds of formula (I) are added to the wells. Compound at a maximal concentration of 5 mM was serially diluted 1:3 for a total of 8 point titration with DMSO as a control. A 1 μL aliquot of each dilution point is added to 249 μL growth media and 75 μL is added to each well containing cells, providing 10 μM compound at the maximum concentration point. The final concentration of DMSO in all wells is 0.2%. Cells are incubated for 72 hours, and 25 μL of CellTiter Glo Reagent (Promega Ga., USA) is added to each well. Plates are shaken for approximately 10 minutes and chemiluminescent signal is read on Tecan microplate reader. The measured luminescence correlates directly with cell number.
(§2) All data is normalized to the mean of eight DMSO high control wells on each plate. A four parameter curve fit of the following formula was then applied: Y=a+(b−a)/(1+(x/c)^d) Where ‘a’ is the minimum, ‘b’ is the maximum, ‘c’ is the pIC50 and ‘d’ is the Hill slope. […] Myc Reporter Assay
In MV-4-11 cells, BRD2, BRD3 and BRD4 bind to the promoter region of MYC and regulate its transcription (Dawson M A et al. 2011). The literature bromodomain inhibitor iBET 151 could disrupt BRD4 recruitment to the MYC promoter and subsequently downregulate c-myc transcription (Dawson M A et al. 2011). Myc protein is a transcription factor that heterodimerizes with an obligatory partner Max and regulates the transcription of genes important for cell proliferation, differentiation, and apoptosis. This Myc reporter assay is used to monitor the inhibitory effect of compound of formula (I) on Myc dependent gene expression. Effective compounds could have potential therapeutic effects in Myc-driven tumors.
The MV-4-11 Myc reporter cell line is established by infecting MV-4-11 with VSV-g pseudotyped lentivirus expressing the firefly luciferase gene under the control of a minimal (m) CMV promoter and tandem repeats of the E-box transcriptional response element (TRE) (Qiagen IL, USA) and selecting cells in […] Puromycin.
The MV-4-11 Myc reporter cell line is maintained in Iscove's Modified Dulbecco's Medium containing 10% FBS, 1% PenStep and 2.5 μg/ml Puromycin. Cells are incubated at 37° C. in a humidified atmosphere with 5% CO2. 25,000 cells are seeded in 96-well plate in 50 μL of culture media. After several hours, growth media containing 2× compounds are added to the wells. Compound at a maximal concentration of 5 mM is serially diluted 1:3 for a total of 8 point titration. A 1 μl aliquot of each dilution point is added to 249 μl growth media and 50 μl is added to each well containing cells, providing 10 μM compound at the maximum concentration point. DMSO treated cells serve as a high control and 10 μM JQ1 treated cells serve as a low control. Cells are incubated for a further 24 hours and 25 μL of CellTiter-Fluo Reagent (Promega Ga., USA) is added to each well. Plates are shaken for approximately 2 minutes and incubated at 37° C. for 0.5 hour. […]

[2] = test system: MV-4-11; test: Oncology cell growth assay MV-4-11 (CellTiter Glo, 72 hours); assay type: cell-based; settings: Homo sapiens, MV4-11, 72 h; MV-4-11 cell growth inhibitory activity, 3d
From the text: as §1, §2
The following table provides data indicating the BRD4 biochemical inhibitory activity and MV-4-11 cell growth inhibitory activity for exemplary compounds as described herein.

Row | IC50 [1] [µM] | IC50 [2] [µM] | Structure (SMILES)
1 | < 10 | 1 to 10 | Cc1noc(C)c1-c1cnc2[nH]cc(Cc3ccccc3OC(F)F)c2c1 [P-0047, 4-[3-[[2-(difluoromethoxy)phenyl]methyl]-1H-pyrrolo[2,3-b]pyridin-5-yl]-3,5-dimethyl-isoxazole]
2 | < 10 | 1 to 10 | Cc1noc(C)c1-c1cnc2[nH]cc(Cc3cccc4c3OC(F)(F)O4)c2c1 [P-0048, 4-[3-[(2,2-difluoro-1,3-benzodioxol-4-yl)methyl]-1H-pyrrolo[2,3-b]pyridin-5-yl]-3,5-dimethyl-isoxazole]
3 | < 10 | 1 to 10 | CCc1[nH]c2ncc(-c3c(C)noc3C)cc2c1Cc1ccccc1Cl [P-0049, 4-[3-[(2-chlorophenyl)methyl]-2-ethyl-1H-pyrrolo[2,3-b]pyridin-5-yl]-3,5-dimethyl-isoxazole]
4 | < 10 | 1 to 10 | Cc1noc(C)c1-c1cnc2ccn(S(=O)(=O)c3ccccc3F)c2c1 [P-0060, 4-[1-(2-fluorophenyl)sulfonylpyrrolo[3,2-b]pyridin-6-yl]-3,5-dimethyl-isoxazole]
5 | < 10 | 1 to 10 | Cc1ccc(S(=O)(=O)n2ccc3ncc(-c4c(C)noc4C)cc32)s1 [P-0062, 3,5-dimethyl-4-[1-[(5-methyl-2-thienyl)sulfonyl]pyrrolo[3,2-b]pyridin-6-yl]isoxazole]
6 | < 10 | ≤ 1 | Cc1noc(C)c1-c1cnc2[nH]cc(C(C)(C)c3ccc(F)cc3)c2c1 [P-0063, 4-[3-[1-(4-fluorophenyl)-1-methyl-ethyl]-1H-pyrrolo[2,3-b]pyridin-5-yl]-3,5-dimethyl-isoxazole]

Continued, compound first:

Row | Structure (SMILES) | IC50 [1] [µM] | IC50 [2] [µM]
7 | Cc1noc(C)c1-c1cnc2ccn(S(=O)(=O)c3ccccc3)c2c1 [P-0038, 4-[1-(benzenesulfonyl)pyrrolo [3,2-b]pyridin-6-yl]-3,5-dimethyl-isoxazole] | < 10 | ≤ 1
8 | Cc1noc(C)c1-c1cnc2[nH]cc(C(O)c3cccc(OC(F)(F)F)c3)c2c1 (stereo not shown) [P-0039, [5-(3,5-dimethylisoxazol-4-yl)-1H-pyrrolo[2,3-b]pyridin-3-yl]-[3-(trifluoromethoxy)phenyl] methanol] | < 10 | 1 to 10
9 | Cc1noc(C)c1-c1cnc2[nH]cc(C(O)c3ccccc3OC(F)F)c2c1 (stereo not shown) [P-0040, [2-(difluoromethoxy)phenyl]-[5-(3,5-dimethylisoxazol-4-yl)-1H-pyrrolo[2,3-b]pyridin-3-yl] methanol] | < 10 | ≤ 1
10 | Cc1noc(C)c1-c1cnc2[nH]cc(C(O)c3cccc4c3OC(F)(F)O4)c2c1 (stereo not shown) [P-0041, (2,2-difluoro-1,3-benzodioxol-4-yl)-[5-(3,5-dimethylisoxazol-4-yl)-1H-pyrrolo[2,3-b]pyridin-3-yl] methanol] | < 10 | 1 to 10
11 | CCc1[nH]c2ncc(-c3c(C)noc3C)cc2c1C(O)c1ccccc1Cl (stereo not shown) [P-0042, (2-chlorophenyl)-[5-(3,5-dimethylisoxazol-4-yl)-2-ethyl-1H-pyrrolo[2,3-b]pyridin-3-yl]methanol] | < 10 | ≤ 1
12 | CCc1[nH]c2ncc(-c3c(C)noc3C)cc2c1C(O)c1cccc(OC(F)(F)F)c1 (stereo not shown) [P-0043, [5-(3,5-dimethylisoxazol-4-yl)-2-ethyl-1H-pyrrolo[2,3-b]pyridin-3-yl]-[3-(trifluoromethoxy)phenyl]methanol] | < 10 | 1 to 10
13 | CCc1[nH]c2ncc(-c3c(C)noc3C)cc2c1C(O)C1CCC(F)(F)CC1 (stereo not shown) [P-0044, (4,4-difluorocyclohexyl)-[5-(3,5-dimethylisoxazol-4-yl)-2-ethyl-1H-pyrrolo[2,3-b]pyridin-3-yl]methanol] | < 10 | ≤ 1
14 | CCc1[nH]c2ncc(-c3c(C)noc3C)cc2c1C(OC)C1CCC(F)(F)CC1 (stereo not shown) [P-0045, 4-[3-[(4,4-difluorocyclohexyl)-methoxy-methyl]-2-ethyl-1H-pyrrolo[2,3-b]pyridin-5-yl]-3,5-dimethyl-isoxazole] | < 10 | ≤ 1
